Source: patent US9676771B2, “Compounds for inhibiting drug-resistant strains of HIV-1 integrase” (priority 2013, dated 2017)
Like-named read-outs stand apart in the source and are kept apart here.

Experiments:
[1] = target: HIV-1 integrase (Human immunodeficiency virus type 1 group M subtype B, UniProt P12497); assay: biochemical; assay type: biochemical
Outline: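 Compounds or DMSO added to 20 nM DNA and 400 nM integrase in 50 mM MOPS pH 7.2, 7.5 mM MgCl2, 14 mM 2-mercaptoethanol; 2 h at 37° C, quenched with formamide/SDS loading buffer. Products resolved on gels, imaged and quantified by densitometry.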

[2] = in vitro; assay type: cell-based, human; details: human, 50% reduction in the level of ATP in HOS cells
Description: Cellular Cytotoxicity Assay.
On the day of the screen, cells were treated with compounds at the appropriate concentration range chosen and incubated at 37° C. for 48 hrs. Cytotoxicity was measured by monitoring ATP levels via a luciferase reporter assay. Cells were lysed in 50 μL cell lysis buffer (PerkinElmer, Waltham, Mass.) and shaken at 700 rpm at room temperature for 5 mins After the addition of 50 μL of ATPlite buffer (PerkinElmer) directly onto the lysed cells and shaking at 700 rpm at room temperature for 5 mins, ATP levels were monitored by measuring luciferase activity using a microplate reader. Activity was normalized to cytotoxicity in the absence of target compounds. KaleidaGraph (Synergy Software, Reading, Pa.) was used to perform regression analysis on the data. CC50 values were determined from the fit model.

[3] = system: HIV-1 constructs containing wild-type IN; assay: microbe, parasite or virus in culture; assay type: cell-based; details: for EC50: Human immunodeficiency virus 1, WT IN, read-out: EC50 (nM, WT)
From the text: (§1) Single-Round HIV-1 Infectivity Assay.
(§2) Human embryonyl kidney cell culture cell line 293 was acquired from the American type Culture Collection (ATCC).
(§3) The virus-containing supernatants were then harvested, clarified by low-speed centrifugation, filtrated, and diluted for preparation in infection assays. […] Activity was normalized to infectivity in the absence of target compounds. KaleidaGraph (Synergy Software, Reading, Pa.) was used to perform regression analysis on the data. EC50 values were determined from the fit model.

[4] = system: HIV-1 constructs containing mutant IN G140S-Q148H; assay: microbe, parasite or virus in culture; assay type: cell-based; details: Human immunodeficiency virus 1
From the text: as §1, §2, §3
(§4) pNLNgoMIVR^−ΔEnv.LUC has been described previously (Zhao et al. 2008). The integrase codon reading frame was removed from pNLNgoMIVR^−ΔEnv LUC (between KpnI and SalI sites) and placed between the KpnI and SalI sites of pBluescript II KS+. Using that construct as the wild-type template, we prepared the following HIV-1 Integrase-resistant mutants via the QuikChange II XL (Stratagene, La Jolla, Calif.) site-directed mutagenesis protocol: H51Y, T66I, E92Q, G118R, Y143R, Q148H, Q148K, N155H, R263K, G140S+Q148H, G140A+Q148K, E138K+Q148K, and H51Y+R263K. The following sense with cognate antisense (not shown) oligonucleotides (Integrated DNA Technologies, Coralville, Iowa) were used in the mutagenesis: H51Y, 5′-[…]-3; T66I, 5′-[…]-3′; E92Q, 5′-[…]-3′; G118R, 5′-[…]-3′; E138K, 5′-[…]-3; G140A, 5′-[…]-3; G140S, 5′-[…]-3′; Y143R, 5′-[…]-3′; Q148H, 5′-[…]-3′; Q148K, 5′-[…]-3; N155H, 5′-[…]-3′; R263K 5′-[…]-3′. The double mutation G140S+Q148H was constructed by using the previously generated Q148H mutant and the appropriate oligonucleotide for the 2nd mutation, G140S. The double mutation G140A+Q148K was made by using the Q148K mutant and the appropriate oligonucleotide for the 2nd mutation, G140A. The double mutation E138K+Q148K was made by using the Q148K mutant and the appropriate oligonucleotide for the 2nd mutation, E138K. The double mutation H51Y+R263K was constructed by using the previously generated H51Y mutant and the appropriate oligonucleotides for the 2nd mutation, R263K. The DNA sequence of each construct was verified independently by DNA sequence determination. […] These DNA sequences were additionally checked independently by DNA sequence determination.

[5] = system: HIV-1 constructs containing mutant IN N155H; assay: microbe, parasite or virus in culture; assay type: cell-based; details: Human immunodeficiency virus 1
From the text: as §1, §2, §3, §4

[6] = system: HIV-1 constructs containing mutant IN Y143R; assay: microbe, parasite or virus in culture; assay type: cell-based; details: Human immunodeficiency virus 1
From the text: as §1, §2, §3, §4

[7] = Table 10, strand transfer, read-out: IC50 (nM, ST)
[8] = Table 8, read-out: EC50 (nM, IN mutants) G140S/Q148H
[9] = Table 8, read-out: EC50 (nM, IN mutants) N155H
[10] = Table 8, read-out: EC50 (nM, IN mutants) Y143R
[11] = Table 7, 3′-processing, read-out: IC50 (μM) 3′-P
[12] = Table 7, strand transfer, read-out: IC50 (μM) ST
[13] = Table 4, 3′-processing, read-out: IC50 (3^+-Processing)
[14] = Table 4, strand transfer, read-out: IC50 (Strand Transfer)
[15] = Table 3, G140S-Q148H double mutant, read-out: EC50 (nM, IN Mutants) SH
[16] = Table 3, read-out: EC50 (nM, IN Mutants) N155H
[17] = Table 3, read-out: EC50 (nM, IN Mutants) Y143R

Row | Compound | CC50 ([2]; Table 8) | EC50 ([3]; Table 8) | EC50 [4, 8] | EC50 [5, 9] | EC50 [6, 10] | IC50 [1, 11] | IC50 [1, 12] | also measured
1 | Nc1c(C(=O)NCc2ccc(F)cc2F)c(=O)n(O)c2ncc(CCS(=O)(=O)CCN3CCOCC3)cc12 [XZ447, 4-Amino-N-(2,4-difluorobenzyl)-1-hydroxy-6-(2-((2-morpholinoethyl)sulfonyl)ethyl)-2-oxo-1,2-dihydro-1,8-naphthyridine-3-carboxamide] | > 250000 nM | 268 nM | 412 nM | 140 nM | 109 nM | – | – | IC50 [1, 7]: 2.5 ± 1.3 nM
2 | Nc1c(C(=O)NCc2ccc(F)cc2F)c(=O)n(O)c2ncc(CCc3ccccc3)cc12 [XZ430, 4-Amino-N-(2,4-difluorobenzyl)-1-hydroxy-2-oxo-6-phenethyl-1,2-dihydro-1,8-naphthyridine-3-carboxamide] | 17600 nM | 5.6 nM | 140 nM | 21.1 nM | 5.5 nM | 48000 ± 4000 nM | 14.5 ± 3.4 nM | –
3 | CS(=O)(=O)CCc1cnc2c(c1)c(N)c(C(=O)NCc1ccc(F)cc1F)c(=O)n2O [XZ445, 4-Amino-N-(2,4-difluorobenzyl)-1-hydroxy-6-(2-(methylsulfonyl)ethyl)-2-oxo-1,2-dihydro-1,8-naphthyridine-3-carboxamide] | 95400 nM | 27 nM | 118 nM | 32.8 nM | 27.5 nM | – | – | IC50 [1, 7]: ~0.07 nM
4 | Nc1c(C(=O)NCc2ccc(F)cc2F)c(=O)n(O)c2ncc(CCCOCCO)cc12 [XZ432, 4-Amino-N-(2,4-difluorobenzyl)-1-hydroxy-6-(3-(2-hydroxyethoxy)propyl)-2-oxo-1,2-dihydro-1,8-naphthyridine-3-carboxamide] | > 250000 nM | 1.6 nM | 35.3 nM | 4.2 nM | 1.2 nM | 1500 ± 400 nM | 2.5 ± 0.4 nM | –
5 | Nc1c(C(=O)NCc2ccc(F)cc2F)c(=O)n(O)c2ncc(CCC(=O)O)cc12 [XZ444, 3-(5-Amino-6-((2,4-difluorobenzyl)carbamoyl)-8-hydroxy-7-oxo-7,8-dihydro-1,8-naphthyridin-3-yl)propanoic acid] | > 250000 nM | 1.9 nM | 195 nM | 10.3 nM | 4.9 nM | – | – | IC50 [1, 7]: 3.9 ± 1.3 nM
6 | Nc1c(C(=O)NCc2ccc(F)cc2F)c(=O)n(O)c2ncc(Br)cc12 [XZ418, 4-Amino-6-bromo-N-(2,4-difluorobenzyl)-1-hydroxy-2-oxo-1,2-dihydro-1,8-naphthyridine-3-carboxamide] | > 250000 nM | 0.99 nM | 112 nM | 18.8 nM | 1.95 nM | 7900 ± 800 nM | 3.2 ± 0.5 nM | –
7 | Nc1c(C(=O)NCc2ccc(F)cc2F)c(=O)n(O)c2ncc(CCCCCCOC(=O)c3ccccc3)cc12 [XZ427, 6-(5-Amino-6-((2,4-difluorobenzyl)carbamoyl)-8-hydroxy-7-oxo-7,8-dihydro-1,8-naphthyridin-3-yl)hexyl benzoate] | 14400 nM | 4.8 nM | 21 nM | 5.4 nM | 3.5 nM | 143000 ± 14000 nM | 3340 ± 557 nM | –
8 | Nc1c(C(=O)NCc2ccc(F)cc2F)c(=O)n(O)c2ncc(CCCCc3ccccc3)cc12 [XZ429, 4-Amino-N-(2,4-difluorobenzyl)-1-hydroxy-2-oxo-6-(4-phenylbutyl)-1,2-dihydro-1,8-naphthyridine-3-carboxamide] | 12800 nM | 10.6 nM | 128 nM | 38.8 nM | 4.7 nM | 42000 ± 4000 nM | 1980 ± 422 nM | –
9 | COC(=O)CNc1c(C(=O)NCc2ccc(F)cc2F)c(=O)n(O)c2ncc(CCCCCO)cc12 [XZ431, Methyl 2-((3-((2,4-difluorobenzyl)carbamoyl)-1-hydroxy-6-(5-hydroxypentyl)-2-oxo-1,2-dihydro-1,8-naphthyridin-4-yl)amino)acetate] | > 250000 nM | 3.3 nM | 41.6 nM | 11.1 nM | 3.5 nM | 2100 ± 500 nM | 3.7 ± 0.7 nM | –
10 | CN(C)c1c(C(=O)NCc2ccc(F)cc2F)c(=O)n(O)c2ncccc12 [XZ372, N-(2,4-difluorobenzyl)-4-(dimethylamino)-1-hydroxy-2-oxo-1,2-dihydro-1,8-naphthyridine-3-carboxamide] | – | – | – | – | – | – | – | IC50 [1, 13]: 21000 ± 2000 nM; IC50 [1, 14]: 87 ± 12 nM; CC50 ([2]; Table 3): 13000 ± 1800 nM; EC50 ([3]; Table 3): 268 ± 8.03 nM; Si (selectivity index) ([3]; Table 3, ratio of CC50 to EC50): 49; EC50 [4, 15]: 6800 ± 0.4 nM; EC50 [5, 16]: 2300 ± 700 nM; EC50 [6, 17]: 273 ± 51.7 nM
11 | CN(C)CCCc1cnc2c(c1)c(N)c(C(=O)NCc1ccc(F)cc1F)c(=O)n2O [XZ425, 4-Amino-N-(2,4-difluorobenzyl)-6-(3-(dimethylamino)propyl)-1-hydroxy-2-oxo-1,2-dihydro-1,8-naphthyridine-3-carboxamide] | 5000 nM | 6.07 nM | 31.7 nM | 29.4 nM | 7 ± 2.3 nM | 3000 ± 400 nM | 14.3 ± 2.2 nM | –
12 | O=C(NCc1ccc(F)cc1F)c1cc2cccnc2n(O)c1=O [XZ390, N-(2,4-difluorobenzyl)-1-hydroxy-2-oxo-1,2-dihydro-1,8-naphthyridine-3-carboxamide] | – | – | – | – | – | – | – | IC50 ([1]; Table 1, 3′-processing, read-out: IC50 Values 3′-Processing): 6100 ± 800 nM; IC50 ([1]; Table 1, strand transfer, read-out: IC50 Values Strand transfer): 41 ± 12 nM; CC50 ([2]; Table 3): > 250000 nM; Si (selectivity index) [3]: >25,000; EC50 ([3]; Table 3): 5.1 ± 1.9 nM; EC50 [4, 15]: 438 ± 121 nM; EC50 [5, 16]: 134 ± 23 nM; EC50 [6, 17]: 4.9 ± 0.77 nM
13 | COc1ccc2c(N)c(C(=O)NCc3ccc(F)cc3F)c(=O)n(O)c2n1 [XZ406, 4-amino-N-(2,4-difluorobenzyl)-1-hydroxy-7-methoxy-2-oxo-1,2-dihydro-1,8-naphthyridine-3-carboxamide] | – | – | – | – | – | – | – | IC50 [1, 13]: 18000 ± 2000 nM; IC50 [1, 14]: 11 ± 2 nM; CC50 ([2]; Table 5): 2200 ± 430 nM; EC50 ([3]; Table 5): 30.3 ± 9.1 nM; SI ([3]; Table 5, ratio of CC50 to EC50): 73; EC50 ([4]; Table 5, G1405-Q148H double mutant, read-out: EC50 (nM, IN Mutants) SH): 3600 ± 1600 nM; EC50 ([5]; Table 5, read-out: EC50 (nM, IN Mutants) N155H): 400 ± 101 nM; EC50 ([6]; Table 5, read-out: EC50 (nM, IN Mutants) Y143R): 62.2 ± 25.6 nM
